Blank lines part the entries; values can stand above or below the molecule they belong to.
Key:
Type in all cases: functional, cell membranes, Membrane vesicle
[1] = molecular target: T1, Mrp3 (ATP-binding cassette sub-family C member 3, ABCC3) (Rattus norvegicus, UniProt O88563); assay: TP_TRANSPORTER: inhibition of F-MTX uptake (F-MTX: 5.0 uM, MK-571: 100.0 uM) in membrane vesicles from Mrp3-Sf9 cells; design: scale not given: the % may be the effect or the level left; conditions: membrane vesicles from Mrp3-expressing Sf9 cells, probe F-MTX; read-out: Activity
[2] = molecular target: T1, Mrp3 (ATP-binding cassette sub-family C member 3, ABCC3); assay: TP_TRANSPORTER: inhibition of F-MTX uptake (F-MTX: 5.0 uM, MK-571: 100.0 uM) in membrane vesicles from IEC-6 cells; design: scale not given: the % may be the effect or the level left; conditions: probe F-MTX, read-out: Activity
[3] = molecular target: ATP-binding cassette sub-family C member 3 (Rattus norvegicus, UniProt O88563); assay: TP_TRANSPORTER: inhibition of F-MTX uptake (F-MTX: 5.0 uM, E217betaG: 75.0 uM) in membrane vesicles from IEC-6 cells; design: scale not given: the % may be the effect or the level left; conditions: iec-6, 75 µM
[4] = molecular target: T1, Mrp3 (ATP-binding cassette sub-family C member 3, ABCC3); assay: TP_TRANSPORTER: inhibition of F-MTX uptake (F-MTX: 5.0 uM, E217betaG: 75.0 uM) in membrane vesicles from Mrp3-Sf9 cells; design: scale not given: the % may be the effect or the level left; conditions: membrane vesicles from Mrp3-expressing Sf9 cells, probe F-MTX; read-out: Activity
[5] = substrate: CN(Cc1cnc2nc(N)nc(N)c2n1)c1ccc(C(=O)N[C@@H](CCC(=O)O)C(=O)O)cc1; assay: TP_TRANSPORTER: uptake in membrane vesicles from Mrp3-Sf9 cells
[6] = substrate: CN(Cc1cnc2nc(N)nc(N)c2n1)c1ccc(C(=O)N[C@@H](CCC(=O)O)C(=O)O)cc1; assay: TP_TRANSPORTER: uptake in membrane vesicles from IEC-6 cells

- activity at 100 µM [1]: 4.9%
- activity at 100 µM [2]: 9.5%
Molecule: CN(C)C(=O)CCSC(SCCC(=O)O)c1cccc(/C=C/c2ccc3ccc(Cl)cc3n2)c1 (stereo unspecified) [MK-571]

Molecule: C[C@]12CC[C@@H]3c4ccc(O)cc4CC[C@H]3[C@@H]1CC[C@@H]2O[C@@H]1O[C@H](C(=O)O)[C@@H](O)[C@H](O)[C@H]1O [ESTRADIOL 17B GLUCURONIDE]
- Activity [3]: 41.7%
- activity at 75 µM [4]: 19.2%

B1: ATP-binding cassette sub-family C member 3 (Rattus norvegicus) (protein)
chain: MDRLCGSGELGSKFWDSNLTVYTNTPDLTPCFQNSLLAWVPCIYLWAALPCYLFYLRHHRLGYIVLSCLSRLKTALGVLLWCISWVDLFYSFHGLVHGSSPAPVFFITPLLVGITMLLATLLIQYERLRGVRSSGVLIIFWLLCVICAIIPFRSKILLALAEGKILDPFRFTTFYIYFALVLCAFILSCFQEKPPLFSPENLDTNPCPEASAGFFSRLSFWWFTKLAILGYRRPLEDSDLWSLSEEDCSHKVVQRLLEAWQKQQTQASGPQTAALEPKIAGEDEVLLKARPKTKKPSFLRALVRTFTSSLLMGACFKLIQDLSPSSTHSCSASSSGLFRPHGPYWWGFLLAGLMFVSSTMQTLILHQHYHCIFVMALRIRTAIIGVIYRKALTITNSVKREYTVGEMVNLMSVDAQRFMDVSPFINLLWSAPLQVILAIYFLWQILGPSALAGVAVIVLLIPLNGAVSMKMKTYQVQQMKFKDSRIKLMSEILNGIKVLKLYAWEPTFLEQVEGIRQGELQLLRKGAYLQAISTFIWVCTPFMVTLITLGVYVCVDKNNVLDAEKAFVSLSLFNILKIPLNLLPQLISGMTQTSVSLKRIQDFLNQDELDPQCVERKTISPGRAITIHNGTFSWSKDLPPTLHSINIQIPKGALVAVVGPVGCGKSSLVSALLGEMEKLEGAVSVKGSVAYVPQQAWIQNCTLQENVLFGQPMNPKRYQQALETCALLADLDVLPGGDQTEIGEKGINLSGGQRQRVSLARAVYSDANIFLLDDPLSAVDSHVAKHIFDQVIGPEGVLAGKTRVLVTHGISFLPQTDFIIVLADGQITEMGHYSELLQHDGSFANFLRNYAPDENQEANEGVLQHANEEVLLLEDTLSTHTDLTDTEPAIYEVRKQFMREMSSLSSEGEGQNRPVLKRYTSSLEKEVPATQTKETGALIKEEIAETGNVKLSVYWDYAKSVGLCTTLFICLLYAGQNAVAIGANVWLSAWTNDVEEHGQQNNTSVRLGVYATLGILQGLLVMLSAFTMVVGAIQAARLLHTALLHNQIRAPQSFFDTTPSGRILNRFSKDIYVIHEVLAPTILMLFNSFYTSISTIVVIVASTPLFCVVVLPLAVFYGFVQRFYVATSRQLKRLESVSRSPIFSHFSETVTGTSVIRAYGRVQDFKVLSDAKVDSNQKTTYPYIASNRWLGVHVEFVGNCVVLFSALFAVIGRNSLNPGLVGLSVSYALQVTLSLNWMIRTLSDLESNIIAVERVKEYSKTETEAPWVLESNRAPEGWPRSGVVEFRNYSVRYRPGLELVLKNLTLHVQGGEKVGIVGRTGAGKSSMTLCLFRILEAAEGEIFIDGLNVAHIGLHDLRSQLTIIPQDPILFSGTLRMNLDPFGRYSDEDIWRTLELSHLSAFVSSQPTGLDFQCSEGGDNLSVGQRQLVCLARALLRKSRVLVLDEATAAIDLETDDLIQGTIRTQFEDCTVLTIAHRLNTIMDYNRVLVLDKGVVAEFDSPVNLIAAGGIFYGMAKDAGLA
- Km [5]: 4.5 µM
- Km [6]: 11.7 µM
